{"source": "paper PMC9525653", "about": "“Mutations conferring SO4^2− pumping ability on the cyanobacterial anion pump rhodopsin and the resultant unique features of the mutant” (Scientific Reports, 2022)", "key": {"[1]": {"target": "MrHR (Mastigocladopsis repens, UniProt A0A6P3CW41)", "sequence (A0A6P3CW41 1-232)": "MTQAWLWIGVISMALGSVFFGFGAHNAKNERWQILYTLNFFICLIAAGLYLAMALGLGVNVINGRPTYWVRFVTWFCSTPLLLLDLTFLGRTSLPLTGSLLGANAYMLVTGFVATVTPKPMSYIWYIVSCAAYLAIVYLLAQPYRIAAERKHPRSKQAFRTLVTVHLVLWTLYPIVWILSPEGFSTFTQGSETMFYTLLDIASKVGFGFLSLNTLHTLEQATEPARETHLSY", "assay": "biochemical"}, "[2]": {"target": "MrHR (Mastigocladopsis repens, UniProt A0A6P3CW41, E182T)", "sequence (A0A6P3CW41 1-232 E182T)": "as the sequence (A0A6P3CW41 1-232) above, with E182T counted along it", "assay": "biochemical"}}, "data": [{"smiles": "Cl", "note": "[Cl^−]", "values": [{"measurement": "Kd", "setting": "[1]", "value": 4.98, "unit": "mM"}, {"measurement": "Kd", "setting": "[2]", "value": 1.18, "unit": "mM"}]}]}
